Reference: patent US9624170B2, “4-(piperrazin-1-yl)-pyrrolidin-2-one compounds as monoacylglycerol lipase (MAGL) inhibitors” (TAKEDA PHARMACEUTICAL COMPANY LIMITED, priority 2013, dated 2017)

Biological target: T1, human MAGL (His-hMAGL) (Homo sapiens, UniProt Q99685)
T1 construct: made in house; host or cells: Escherichia coli BL21(DE3)
T1 sequence (Q99685 1-303): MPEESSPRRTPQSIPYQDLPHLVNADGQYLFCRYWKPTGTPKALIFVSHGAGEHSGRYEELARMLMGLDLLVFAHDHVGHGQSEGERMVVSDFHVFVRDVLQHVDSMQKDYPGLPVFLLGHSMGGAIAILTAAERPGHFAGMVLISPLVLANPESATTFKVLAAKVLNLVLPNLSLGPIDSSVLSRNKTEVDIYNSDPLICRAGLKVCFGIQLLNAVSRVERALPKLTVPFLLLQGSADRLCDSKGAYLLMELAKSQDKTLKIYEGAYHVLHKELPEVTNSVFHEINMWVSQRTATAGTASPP
Assay: Measurement of MAGL inhibitory activity by mass spectrometry
Format: biochemical
Conditions: MAGL inhibitory rate, test compound 10 μM, His-hMAGL, substrate 2-arachidonylglycerol, RapidFire-mass spectrometry
Method in brief: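 His-tagged human MAGL was reacted with 150 μM 2-arachidonylglycerol substrate (stock, added by 5 μL) for 10 min at room temperature, then stopped with formic acid. Arachidonic acid product was quantified by RapidFire–triple-quadrupole MS in negative SRM mode, corrected by arachidonic acid-d8, and converted to percent inhibition.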

SMILES	inhibition at 10 µM [%]
Cc1ncccc1-c1cc(F)cc(N2CC(N3CCN(c4ncccn4)CC3)CC2=O)c1 (stereo not drawn) [Example 406, 1-(3-Fluoro-5-(2-methylpyridin-3-yl)phenyl)-4-(4-(pyrimidin-2-yl)piperazin-1-yl)pyrrolidin-2-one]	98
COc1cnc(N2CCc3cc(N4C[C@H](N5CCN(C(=O)c6nccs6)CC5)CC4=O)ccc32)nc1 [Example 407, (4R)-1-(1-(5-methoxypyrimidin-2-yl)-2,3-dihydro-1H-indol-5-yl)-4-(4-(1,3-thiazol-2-ylcarbonyl)piperazin-1-yl)pyrrolidin-2-one]	104
CC(C)(C)OC(=O)N1CCc2cc(N3C[C@H](N4CCN(C(=O)c5cscn5)CC4)CC3=O)ccc21 [Example 408, tert-butyl 5-((4R)-2-oxo-4-(4-(1,3-thiazol-4-ylcarbonyl)piperazin-1-yl)pyrrolidin-1-yl)indoline-1-carboxylate]	103
CC(C)(C)CC(=O)N1CCc2cc(N3CC(N4CCN(c5ncccn5)CC4)CC3=O)ccc21 (stereo not drawn) [Example 409, 1-(1-(3,3-dimethylbutanoyl)-2,3-dihydro-1H-indol-5-yl)-4-(4-(pyrimidin-2-yl)piperazin-1-yl)pyrrolidin-2-one]	94
COc1ccc(CC(=O)N2CCc3cc(N4CC(N5CCN(c6ncccn6)CC5)CC4=O)ccc32)cn1 (stereo not drawn) [Example 410, 1-(1-((6-methoxypyridin-3-yl)acetyl)-2,3-dihydro-1H-indol-5-yl)-4-(4-(pyrimidin-2-yl)piperazin-1-yl)pyrrolidin-2-one]	80
O=C1CC(N2CCN(c3ncccn3)CC2)CN1c1ccc2c(c1)CCN2C(=O)Cc1ccc(F)cc1 (stereo not drawn) [Example 413, 1-(1-((4-fluorophenyl)acetyl)-2,3-dihydro-1H-indol-5-yl)-4-(4-(pyrimidin-2-yl)piperazin-1-yl)pyrrolidin-2-one]	94
O=C(c1cscn1)N1CCN([C@@H]2CC(=O)N(c3ccc4c(ccn4-c4ccc(C(F)(F)F)cc4)c3)C2)CC1 [Example 418, (4R)-4-(4-(1,3-Thiazol-4-ylcarbonyl)piperazin-1-yl)-1-(1-(4-(trifluoromethyl)phenyl)-1H-indol-5-yl)pyrrolidin-2-one]	96
O=C(c1cscn1)N1CCN([C@@H]2CC(=O)N(c3ccc4c(ccn4-c4ccc(C(F)(F)F)cn4)c3)C2)CC1 [Example 419, (4R)-4-(4-(1,3-Thiazol-4-ylcarbonyl)piperazin-1-yl)-1-(1-(5-(trifluoromethyl)pyridin-2-yl)-1H-indol-5-yl)pyrrolidin-2-one]	96

Now from value to compound:

inhibition at 10 µM [%]	SMILES
103	O=C(c1cscn1)N1CCN([C@@H]2CC(=O)N(c3ccc4c(c3)CCN4c3ccc(C(F)(F)F)cc3)C2)CC1 [Example 405, (4R)-4-(4-(1,3-Thiazol-4-ylcarbonyl)piperazin-1-yl)-1-(1-(4-(trifluoromethyl)phenyl)-2,3-dihydro-1H-indol-5-yl)pyrrolidin-2-one]
100	CC(C)(C)CC(=O)N1CCc2cc(N3C[C@H](N4CCN(C(=O)c5cscn5)CC4)CC3=O)ccc21 [Example 414, (4R)-1-(1-(3,3-dimethylbutanoyl)-2,3-dihydro-1H-indol-5-yl)-4-(4-(1,3-thiazol-4-ylcarbonyl)piperazin-1-yl)pyrrolidin-2-one]
97	O=C(c1cscn1)N1CCN([C@@H]2CC(=O)N(c3ccc4c(c3)CCN4C(=O)Cc3ccc(Cl)cc3)C2)CC1 [Example 415, (4R)-1-(1-((4-chlorophenyl)acetyl)-2,3-dihydro-1H-indol-5-yl)-4-(4-(1,3-thiazol-4-ylcarbonyl)piperazin-1-yl)pyrrolidin-2-one]
99	O=C(c1cscn1)N1CCN([C@@H]2CC(=O)N(c3ccc4c(c3)CCN4C(=O)Cc3cccc(Cl)c3)C2)CC1 [Example 416, (4R)-1-(1-((3-chlorophenyl)acetyl)-2,3-dihydro-1H-indol-5-yl)-4-(4-(1,3-thiazol-4-ylcarbonyl)piperazin-1-yl)pyrrolidin-2-one]
